# Several values for one entry are separate records, joined by “and”; a condition that tells them apart may be missing. Identical values can stand only once. Like-named read-outs stand apart in the source and are kept apart here.
# Legend:
# [1] = from literature, cited from earlier work
# [2] = from literature, cited from earlier work; remark: listed apart in the source
# [3] = in vivo; cited from earlier work
# [4] = tested on: DU145 prostate cancer cells; assay: Cell viability analysis (CCK8) in DU145 cells; assay type: cell-based; conditions: 48 hours, physiologically relevant concentrations
# Procedure: (§1) DU145 cells were purchased from American Type Culture Collection (ATCC, Manassas, VA, USA). HepG2 cells were kindly gifted by Dr. Zhenghong Lee at Case Western Reserve University (CWRU, Cleveland, OH, USA). All cell lines were cultured in Dulbecco's Modified Eagle's Medium (DMEM, Gibco, Amarillo, TX, USA) supplemented with 1% penicillin-streptomycin (Gibco) and 10% fetal bovine serum (Gibco) and incubated at 37° C. and 5% CO2.
# (§2) Cells in culture were trypsonized and counted. In a 96-well plate, cells were seeded at 5,000 cells per well and incubated for 1 day to adhere and proliferate. Cells were then incubated with increasing concentrations of the liver-targeted MBCA for 48 hours. To measure cell viability, a CCK8 assay was performed according to the manufacturer's instructions (Dojindo Molecular Technologies, Inc., Kumamoto, JP). Percent cell viability was calculated as the signal intensity of the treated well divided by the signal intensity of the untreated control wells after accounting for background signal.
# [5] = tested on: C57BL6 mice; assay: 3D FLASH whole-body MRI; assay type: in vivo; parameters: key to Delta SNR: change in SNR, where SNR = s_tissue/σ_noise; conditions: for Delta SNR: 0.060 mmol/kg
# Procedure: (§3) All animal and imaging procedures were performed according to an approved Institutional Animal Care and Use Committee protocol. Male C57BL6 mice were purchased from Jackson Labs (Bar Harbor, ME, USA), housed in an animal facility.
# (§4) All imaging experiments were performed using the MRS3000 3T small animal scanner. Mice (n=5) were anesthetized with 2% isoflurane, the tail vein was cannulized with a catheter, followed by transferal to the heated mouse bed of the MRI scanner. Mice were monitored with a respiration monitor while in the scanner. Before and at 15 and 30 minutes after administration of 60 μmol/kg Mn(EOB-PC2A), mice were imaged with a T1w axial fast spin-echo sequence with respiratory gating (TR=305 ms, TE=11 ms, FOV=40×40 mm, slice thickness=1 mm, number of slices=15, Nav=4, matrix=256×248) and a 3D FLASH sequence (TR=16 ms, […], T1=1000 ms, FOV=70×35 mm, slice thickness=35 mm, number of slices=1, Nav=3, matrix=256×128, flip angle=25°). Mice underwent an additional T1w axial spin-echo and 3D FLASH acquisitions at 24 hours post-injection.
# (§5) MR images were exported in DICOM format, and processed and analyzed using FIJI software (https://imagej.net/software/fiji/). The signal-to-noise ratio [stissue/σnoise] and contrast-to-noise ratio [(stissue−smuscle)/σnoise] were calculated for the relevant tissues of each mouse at every time point. Subtraction images were produced for the 3D FLASH images by first dividing the pixel values of the images of each acquisition by the scaling factor assigned by the MRS software, and then subtracting the corresponding pre-contrast baseline images from the post-contrast images. Maximum intensity projections and 3-dimensional projections were produced for the raw and subtraction 3D FLASH images in FIJI using the “Z-project” function and the “3D-project” function with interpolation, respectively.
# [6] = tested on: C57BL6 mice; assay: T1-weighted axial fast spin-echo MRI of the liver; assay type: in vivo; conditions: 0.060 mmol/kg i.v.
# Procedure: as §3, §4, §5
# [7] = tested on: HepG2 hepatoma cells; assay: Cell uptake analysis (ICP-OES manganese content); assay type: cell-based; conditions: 2 mM, 2 hours
# Procedure: Cells were plated in a 6-well plate and incubated for 1 day to adhere and proliferate. Cells were then incubated for 2 hours with 2 mM Mn(EOB-PC2A), after which they were washed three times with DPBS, trypsonized, and pelleted. Cells were resuspended in 250 μL of 75% HNO3 for 48 hours for dissolution, after which 4.75 mL distilled water was added. The samples were centrifuged at 4,000 rpm for 30 minutes to pellet any non-dissolved components and the supernatant was collected. Manganese content in the cell solution was quantified by inductively coupled plasma optical emission spectroscopy (ICP-OES 730, Agilent Technologies, Santa Clara, CA, USA).
# [8] = Relaxivity measurements of Mn(EOB-PC2A) in saline containing 4.5% human serum albumin; assay type: physicochemical; conditions: 4.5% human serum albumin in saline, 1.5T, 37° C.
# Procedure: (§6) Solutions of Mn(EOB-PC2A) were prepared in DPBS or saline containing 4.5% human serum albumin. The T1 and T2 relaxation times at 1.5T were measured using a Bruker Minispec Relaxometer ([…], 37° C.; Bruker, Billerica, MA, USA). The T1 relaxation times were also measured at 3T using an MRS3000 3T small animal scanner from MR solutions (MR Solutions, Surrey, UK) with a T1 mapping sequence (TR=10 ms, TE=4 ms, T1=50 ms, FOV=40×40 mm, slice thickness=2 mm, number of slices=1, Nav=1, matrix=256×128, flip angle=8°). The r1 and r2 relaxivities were calculated as the slope of the 1/T1 and 1/T2 vs. Mn concentration, respectively.
# [9] = tested on: HepG2 hepatoma cells; assay: Cell viability analysis (CCK8) in HepG2 cells; assay type: cell-based; conditions: 48 hours, physiologically relevant concentrations
# Procedure: as §1, §2
# [10] = Relaxivity measurements of Mn(EOB-PC2A) in DPBS; assay type: physicochemical
# Procedure: as §6
# [11] = blood plasma (human plasma), 1.5 T
# [12] = 15 minutes post-injection, relative to pre-contrast baseline
# [13] = 30 minutes post-injection, relative to pre-contrast baseline
# [14] = 24 hours post-injection, relative to pre-contrast baseline
compound,measurement,setting,value
mangafodipir,r1 relaxivity Plasma/Serum,[1]; [11],3.6 mM⁻¹ s⁻¹
same,r1 relaxivity Water/DPBS,[2]; 1.5 T,1.6 mM⁻¹ s⁻¹
"CCOc1ccc(C[C@@H](CN(CCN(CC(=O)[O-])CC(=O)[O-])CC(=O)[O-])N(CC(=O)[O-])CC(=O)[O-])cc1.[Gd+3].[H+].[H+] [Gadoxetate, gadoxetate]",time of peak enhancement after administration,[3],around 20 minutes
same,r1 relaxivity Plasma/Serum,[1]; [11],6.9 mM⁻¹ s⁻¹
same,r1 relaxivity Water/DPBS,[2]; 1.5 T,4.7 mM⁻¹ s⁻¹
"O=C([O-])CN(CCN(CC(=O)[O-])CC(=O)[O-])CCN(CC(=O)[O-])C(COCc1ccccc1)C(=O)[O-].[Gd+3].[H+].[H+] (centres unmarked) [Gadobenate, gadobenate]",r1 relaxivity Plasma/Serum,[1]; [11],6.3 mM⁻¹ s⁻¹
same,r1 relaxivity Water/DPBS,[2]; 1.5 T,4.0 mM⁻¹ s⁻¹
Mn(EOB-PC2A),cytotoxicity,[4],no cytotoxicity
same,Delta SNR,"[5]; Bladder, 15 minutes post-injection",157.07 ± 39.02
same,Delta SNR,"[5]; Bladder, 30 minutes post-injection",199.96 ± 25.86
same,Delta SNR,"[5]; Bladder, 24 hours post-injection",−2.58 ± 5.42
same,Delta SNR,"[5]; Heart, 15 minutes post-injection",−0.04 ± 5.85
same,Delta SNR,"[5]; Heart, 30 minutes post-injection",−2.28 ± 7.11
same,Delta SNR,"[5]; Heart, 24 hours post-injection",5.73 ± 16.25
same,Delta SNR,"[5]; Kidney, 15 minutes post-injection",27.74 ± 7.66
same,Delta SNR,"[5]; Kidney, 30 minutes post-injection",21.33 ± 8.28
same,Delta SNR,"[5]; Kidney, 24 hours post-injection",3.87 ± 5.62
same,Delta SNR,"[5]; Liver, 15 minutes post-injection",51.48 ± 17.20
same,Delta SNR,"[5]; Liver, 30 minutes post-injection",29.19 ± 14.28
same,Delta SNR,"[5]; Liver, 24 hours post-injection",1.36 ± 6.44
same,Delta SNR,"[5]; Lung, 15 minutes post-injection",−0.27 ± 0.44
same,Delta SNR,"[5]; Lung, 30 minutes post-injection",−0.41 ± 0.31
same,Delta SNR,"[5]; Lung, 24 hours post-injection",−0.43 ± 0.71
same,Delta SNR,"[5]; Muscle, 15 minutes post-injection",−3.63 ± 3.21
same,Delta SNR,"[5]; Muscle, 30 minutes post-injection",−4.07 ± 5.11
same,Delta SNR,"[5]; Muscle, 24 hours post-injection",−6.62 ± 10.13
same,biliary elimination,"[5]; enhancement in gallbladder, particularly 30 minutes post-injection",eliminated via biliary excretion
same,renal elimination of unbound agent,"[5]; signal enhancement in kidneys and urinary bladder, 15 and 30 minutes post-injection",rapidly excreted via renal filtration
same,normalized CNR of the liver,[6]; [12],3.20
same,normalized SNR of the liver,[6]; [12],1.41
same,normalized CNR of the liver,[6]; [13],3.12
same,normalized SNR of the liver,[6]; [13],1.42
same,liver CNR,[6]; [14],1.16
same,liver SNR,[6]; [14],0.86
same,washout time after injection,[6]; liver MR signal returns to pre-contrast baseline,≤ 24 h
same,intracellular concentration of Mn(II) relative to untreated cells,[7],17 times
same,r1 relaxivity Plasma/Serum,[8],5.85 mM⁻¹ s⁻¹ and 5.9 mM⁻¹ s⁻¹
same,cytotoxicity,[9],no cytotoxicity
same,r1 relaxivity Water/DPBS,"[10]; 1.5T, 37° C.",2.83 mM⁻¹ s⁻¹ and 2.8 mM⁻¹ s⁻¹
same,r1 relaxivity,[10]; 3 T,2.61 mM⁻¹ s⁻¹
"O=C([O-])CN1CCNCCN(CC(=O)[O-])Cc2cccc(n2)C1.[Mn+2] [Mn-3,9-PC2A]",r1 relaxivity Plasma/Serum,"[1]; Seronorm, 1.41 T",3.3 mM⁻¹ s⁻¹
same,r1 relaxivity Water/DPBS,"[2]; water, 1.41 T",2.2 mM⁻¹ s⁻¹
"O=C([O-])CN1CCNCc2cccc(n2)CN(CC(=O)[O-])CC1.[Mn+2] [Mn-3,6-PC2A]",r1 relaxivity Plasma/Serum,"[1]; Seronorm, 1.41 T",3.0 mM⁻¹ s⁻¹
same,r1 relaxivity Water/DPBS,"[2]; water, 1.41 T",2.4 mM⁻¹ s⁻¹

# Source: US20250057990A1, “TISSUE-SPECIFIC MANGANESE BASED MRI CONTRAST AGENTS” (CASE WESTERN RESERVE UNIVERSITY, priority 2021, published 2025)
